# Key:
# [1] = biological target: Recombinant human EIF2AK3 (PERK) catalytic domain (amino acids 536-1116) (Homo sapiens (Human), UniProt Q9NZJ5); assay: PERK In Vitro Activity Assay (isolated), TR-FRET kinase assay; settings: isolated PERK enzyme, 1.5 μM ATP, read-out: Biochemical IC50
# How it was run: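 Recombinant PERK catalytic domain was incubated with 100–200 nM GFP-eIF2a substrate in 50 mM HEPES pH 7.5, 10 mM MgCl2, 1.0 mM EGTA and 0.01% Brij-35 for 45 min at room temperature. After a 10 mM EDTA stop, 2 nM Tb-anti-phospho-eIF2a was added for 90 min, and IC50 was fitted from TR-FRET ratios by 4-parameter logistic regression.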
# [2] = system: eIF2α in HEK293-EGFP-eIF2α cells; assay: PERK Cellular Assay (HEK293-EGFP-eIF2α cells, tunicamycin-induced ER stress, TR-FRET); assay type: cell-based; settings: tunicamycin 2 hours
# How it was run: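 Cells pre-incubated with inhibitor 30 min at 37 °C, then ER stress induced with […] tunicamycin for 2 h. TR-FRET read on lysates; ratio normalized to DMSO control as percent inhibition over a 10-point, 3-fold dilution series; IC50 from 4-parameter logistic fit.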
# Recombinant human EIF2AK3 (PERK) catalytic domain (amino acids 536-1116), sequence (Q9NZJ5 536-1116): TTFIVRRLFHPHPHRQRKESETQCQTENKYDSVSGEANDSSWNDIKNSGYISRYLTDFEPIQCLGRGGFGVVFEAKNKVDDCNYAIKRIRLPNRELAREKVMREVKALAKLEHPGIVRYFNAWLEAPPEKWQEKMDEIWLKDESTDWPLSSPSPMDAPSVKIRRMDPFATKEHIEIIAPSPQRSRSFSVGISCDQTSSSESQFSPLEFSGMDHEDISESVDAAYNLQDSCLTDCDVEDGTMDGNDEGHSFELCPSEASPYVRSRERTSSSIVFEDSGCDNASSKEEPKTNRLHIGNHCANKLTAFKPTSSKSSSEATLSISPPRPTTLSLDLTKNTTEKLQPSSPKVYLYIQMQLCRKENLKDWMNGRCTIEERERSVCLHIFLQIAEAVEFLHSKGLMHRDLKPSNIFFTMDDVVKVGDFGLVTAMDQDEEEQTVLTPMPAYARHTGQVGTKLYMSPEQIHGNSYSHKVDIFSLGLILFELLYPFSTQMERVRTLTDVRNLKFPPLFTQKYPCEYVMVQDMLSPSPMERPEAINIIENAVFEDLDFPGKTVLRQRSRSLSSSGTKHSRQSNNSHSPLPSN
SMILES,IC50 [1] [nM],IC50 [2] [nM],IC50 ([2]; 2 h) [nM]
"[2H]C([2H])([2H])c1nc(-c2cnc(NC(=O)C(O)c3cccc(F)c3)cc2C)c2c(N)nc(C)cn12 (centres unmarked) [Example 179, N-[5-[8-amino-6-methyl-3-(trideuteriomethyl)imidazo[1,5-a]pyrazin-1-yl]-4-methyl-2-pyridyl]-2-(3-fluorophenyl)-2-hydroxy-acetamide]",1 to 25,251 to 500,–
"Cc1cnc(N)c2c(-c3ccc(NC(=O)C(O)c4cccc(F)c4)c(F)c3)nc(C)n12 (centres unmarked) [Example 124, N-(4-(8-amino-3,5-dimethyl-imidazo[1,5-a]pyrazin-1-yl)-2-fluorophenyl)-2-(3-fluorophenyl)-2-hydroxy-acetamide]",26 to 50,501 to 1000,–
"[2H]C([2H])([2H])c1nc(-c2cnc(NC(=O)C(O)c3cccc(C(F)(F)F)c3)cc2C)c2c(N)nc(C)cn12 (centres unmarked) [Example 183, N-[5-[8-amino-6-methyl-3-(trideuteriomethyl)imidazo[1,5-a]pyrazin-1-yl]-4-methyl-2-pyridyl]-2-hydroxy-2-[3-(tnfluoromethyl)phenyl]acetamide]",251 to 500,2000 to 3000,–
"[2H]C([2H])([2H])c1nc(-c2ccc(NC(=O)C(O)c3cccc(Cl)c3)c(F)c2F)c2c(N)ncc(C)n12 (centres unmarked) [Example 138, N-[4-[8-amino-5-methyl-3-(trideuteriomethyl)imidazo[1,5-a]pyrazin-1-yl]-2,3-difluoro-phenyl]-2-(3-chloro-phenyl)-2-hydroxy-acetamide]",1 to 25,1 to 25,–
"[2H]C([2H])([2H])c1nc(-c2ccc(NC(=O)C(O)c3cccc(F)c3)cc2F)c2c(N)ncc(C(F)(F)F)n12 (centres unmarked) [Example 76, N-[4-[8-amino-3-(trideuteriomethyl)-5-(trifluoromethyl)imidazo[1,5-a]pyrazin-1-yl]-3-fluoro-phenyl]-2-(3-fluorophenyl)-2-hydroxy-acetamide]",1 to 25,1 to 25,–
"CCc1cc(NC(=O)C(O)c2cccc(F)c2)ccc1-c1nc(C)n2c(C)cnc(N)c12 (centres unmarked) [Example 66, N-(4-(8-amino-3,5-dimethylimidazo [1,5-a]pyrazin-1-yl)-3-ethylphenyl)-2-(3-fluorophenyl)-2-hydroxy-acetamide]",1 to 25,26 to 50,–
"[2H]C([2H])([2H])c1nc(-c2ccc(NC(=O)C(O)c3cccc(C(F)(F)F)c3)c(F)c2F)c2c(N)ncc(C)n12 (centres unmarked) [Example 147, N-[4-[8-amino-5-methyl-3-(trideuteriomethyl)imidazo[1,5-a]pyrazin-1-yl]-2,3-difluoro-phenyl]-2-hydroxy-2-[3-(trifluoromethyl)phenyl]acetamide]",26 to 50,101 to 250,–
"[2H]C([2H])([2H])c1nc(-c2ccc(NC(=O)C(O)c3cccc(Cl)c3)cc2F)c2c(N)ncc(C)n12 (centres unmarked) [Example 84, N-[4-[8-amino-5-methyl-3-(trideuteriomethyl)imidazo[1,5-a]pyrazin-1-yl]-3-fluoro-phenyl]-2-(3-chlorophenyl)-2-hydroxy-acetamide]",1 to 25,1 to 25,–
"Cc1cn2c(C)nc(-c3ccc(NC(=O)C(O)c4cccc(F)c4)c(F)c3F)c2c(N)n1 (centres unmarked) [Example 128, N-(4-(8-amino-3,6-dimethyl-imidazo[1,5-a]pyrazin-1-yl)-2,3-difluoro-phenyl)-2-(3-fluorophenyl)-2-hydroxyacetamide]",1 to 25,1 to 25,–
"[2H]C([2H])([2H])c1nc(-c2ccc(NC(=O)C(O)c3cc(F)cc(C(F)(F)F)c3)c(F)c2F)c2c(N)ncc(C)n12 (centres unmarked) [Example 160, N-[4-[8-amino-5-methyl-3-(trideuteriomethyl)imidazo[1,5-a]pyrazin-1-yl]-2,3-difluoro-phenyl]-2-[3-fluoro-5-(trifluoromethyl)phenyl]-2-hydroxy-acetamide]",1 to 25,1 to 25,–
"[2H]C([2H])([2H])c1nc(-c2ccc(NC(=O)C(O)c3cc(F)cc(F)c3)cc2C)c2c(N)nc(C)cn12 (centres unmarked) [Example 44, N-[4-[8-amino-6-methyl-3-(trideuteriomethyl)imidazo[1,5-a]pyrazin-1-yl]-3-methyl-phenyl]-2-(3,5-difluoro-phenyl)-2-hydroxy-acetamide]",1 to 25,101 to 250,–
"Cc1cc(NC(=O)C(O)c2cccc(F)c2)ccc1-c1nc(C)n2c(Cl)cnc(N)c12 (centres unmarked) [Example 28, N-(4-(8-amino-5-chloro-3-methylimidazo[1,5-a]pyrazin-1-yl)-3-methylphenyl)-2-(3-fluorophenyl)-2-hydroxyacetamide]",1 to 25,1 to 25,–
"[2H]C([2H])([2H])c1nc(-c2ccc(NC(=O)C(O)c3cccc(F)c3)cc2F)c2c(N)ncc(C(F)(F)F)n12 (centres unmarked) [Example 77, N-[4-[8-amino-3-(trideuteriomethyl)-5-(trifluoromethyl)imidazo[1,5-a]pyrazin-1-yl]-3-fluoro-phenyl]-2-(3-fluorophenyl)-2-hydroxy-acetamide]",1 to 25,51 to 100,–
"Cc1cnc(N)c2c(-c3ccc(NC(=O)C(O)c4cccc(F)c4)cc3F)nc(C)n12 (centres unmarked) [Example 70, N-(4-(8-amino-3,5-dimethylimidazo [1,5-a]pyrazin-1-yl)-3-fluorophenyl)-2-(3-fluorophenyl)-2-hydroxy-acetamide]",1 to 25,1 to 25,–
"Cc1cn2c(C)nc(-c3ccc(NC(=O)C(O)c4cccc(F)c4)c(F)c3F)c2c(N)n1 (centres unmarked) [Example 129, N-(4-(8-amino-3,6-dimethyl-imidazo[1,5-a]pyrazin-1-yl)-2,3-difluoro-phenyl)-2-(3-fluorophenyl)-2-hydroxyacetamide]",501 to 1000,> 5000,–

# More lines, main results first:
IC50 [1] [nM],SMILES,IC50 [2] [nM],IC50 ([2]; 2 h) [nM]
1 to 25,"[2H]C([2H])([2H])c1nc(-c2ccc(NC(=O)C(O)c3cccc(F)c3)nc2C)c2c(N)ncc(C)n12 (centres unmarked) [Example 173, N-[5-[8-amino-5-methyl-3-(trideuteriomethyl)imidazo[1,5-a]pyrazin-1-yl]-6-methyl-2-pyridyl]-2-(3-fluorophenyl)-2-hydroxy-acetamide]",26 to 50,–
1 to 25,"[2H]C([2H])([2H])c1nc(-c2ccc(NC(=O)C(O)c3cc(F)cc(F)c3)cc2F)c2c(N)nc(C)cn12 (centres unmarked) [Example 102, N-[4-[8-amino-6-methyl-3-(trideuteriomethyl)imidazo[1,5-a]pyrazin-1-yl]-3-fluoro-phenyl]-2-(3,5-difluoro-phenyl)-2-hydroxy-acetamide]",1 to 25,–
1 to 25,"[2H]C([2H])([2H])c1nc(-c2ccc(NC(=O)C(O)c3cc(F)cc(C(F)(F)F)c3)c(F)c2F)c2c(N)nc(C)cn12 (centres unmarked) [Example 166, N-[4-[8-amino-6-methyl-3-(trideuteriomethyl)imidazo[1,5-a]pyrazin-1-yl]-2,3-difluoro-phenyl]-2-[3-fluoro-5-(trifluoromethyl)phenyl]-2-hydroxy-acetamide]",1 to 25,–
1 to 25,"[2H]C([2H])([2H])c1nc(-c2ccc(NC(=O)C(O)c3cc(F)cc(F)c3)c(F)c2F)c2c(N)ncc(C)n12 (centres unmarked) [Example 155, N-[4-[8-amino-5-methyl-3-(trideuteriomethyl)imidazo[1,5-a]pyrazin-1-yl]-2,3-difluoro-phenyl]-2-(3,5-difluorophenyl)-2-hydroxy-acetamide]",51 to 100,–
501 to 1000,"[2H]C([2H])([2H])c1nc(-c2ccc(NC(=O)C(O)c3cccc(C(F)(F)F)c3)c(F)c2F)c2c(N)ncc(C(F)(F)F)n12 (centres unmarked) [Example 149, N-[4-[8-amino-3-(trideuteriomethyl)-5-(trifluoromethyl)imidazo[1,5-a]pyrazin-1-yl]-2,3-difluoro-phenyl]-2-hydroxy-2-[3-(trifluoromethyl)phenyl]acetamide]",251 to 500,–
1 to 25,"Cc1cc(NC(=O)C(O)c2cccc(F)c2)ccc1-c1nc(C)n2c(C)cnc(N)c12 (centres unmarked) [Example 8, N-(4-(8-amino-3,5-dimethylimidazo[1,5-a]pyrazin-1-yl)-3-methylphenyl)-2-(3-fluorophenyl)-2-hydroxyacetamide]",26 to 50,–
1 to 25,"Cc1cc(NC(=O)C(O)c2cc(F)cc(C(F)(F)F)c2)ccc1-c1nc(C)n2c(C)cnc(N)c12 (centres unmarked) [Example 58, N-(4-(8-amino-3,5-dimethylimidazo [1,5-a]pyrazin-1-yl)-3-methylphenyl)-2-(3-fluoro-5-(trifluoromethyl)phenyl)-2-hydroxyacetamide]",26 to 50,–
1 to 25,"[2H]C([2H])([2H])c1nc(-c2ccc(NC(=O)C(O)c3cccc(F)c3)cc2F)c2c(N)ncc(Cl)n12 (centres unmarked) [Example 74, N-[4-[8-amino-5-chloro-3-(trideuteriomethyl)imidazo[1,5-a]pyrazin-1-yl]-3-fluoro-phenyl]-2-(3-fluorophenyl)-2-hydroxy-acetamide]",1 to 25,–
1 to 25,"[2H]C([2H])([2H])c1nc(-c2ccc(NC(=O)C(O)c3cccc(C)c3)cc2F)c2c(N)ncc(C)n12 (centres unmarked) [Example 90, N-[4-[8-amino-5-methyl-3-(trideuteriomethyl)imidazo[1,5-a]pyrazin-1-yl]-3-fluoro-phenyl]-2-hydroxy-2-(m-tolyl)acetamide]",–,26 to 50
1 to 25,"[2H]C([2H])([2H])c1nc(-c2ccc(NC(=O)C(O)c3cc(F)cc(C(F)(F)F)c3)cc2F)c2c(N)ncc(Cl)n12 (centres unmarked) [Example 115, N-[4-[8-amino-5-chloro-3-(trideuteriomethyl)imidazo[1,5-a]pyrazin-1-yl]-3-fluoro-phenyl]-2-[3-fluoro-5-(trifluoromethyl)phenyl]-2-hydroxy-acetamide]",26 to 50,–

# Reference: patent US12331054B2, “Perk inhibiting imidazolopyrazine compounds” (HiberCell, Inc., priority 2019, dated 2025)
